Experimental data as given in paper PMC4052115 (Journal of immunology (Baltimore, Md. : 1950), 2014).

Assays:
[1] = test system: brain-derived CD8 T cells; assay: IFN-γ intracellular cytokine staining of brain-derived leukocytes; assay type: cell-based, C57BL/6 (B6) mice; conditions: brain-derived cells of rJ-infected mice, day 7 p.i.
[2] = test system: brain-derived CD8 T cells; conditions: ref [14]; cited from earlier work
[3] = target: H-2K^b (K^b heavy chain with β2-microglobulin), recombinant, refolded (mouse | not stated); assay: circular dichroism thermal denaturation
DC2.4 cells = assay type: cell-based
[4] = Immunogenicity in preliminary experiments; conditions: data not shown

RCYIFANI [Epitope Q600Y]
fraction of S598-primed CD8 T cells recognizing the variant peptide [1]: only a small fraction
fraction of responding T cells that recognized only the variant epitope [2]: ~ 35%

Q600F peptide (heteroclitic S598 analogue), Aba-modified (from UniProt P22432 598-605)
Tm of the K^b/peptide complex [3]: 62.7 °C

TSYKFESV [Epitope B8_20-27]
level of VacV-derived control peptide (DC2.4 cells): equivalently high levels

CSLWNGPHL [Epitope S510]
detection of peptide eluted from MHC complexes (DC2.4 cells): neither peptide was detectable

S598 peptide (native epitope), Aba-modified
Tm of the K^b/peptide complex [3]: 56.2 °C

RCEIFANI [Epitope Q600E]
immunogenicity [4]: not immunogenic
